Measured values published in US20110236504A1, “VERSATILE DISINFECTANT” (priority 2008, published 2011).

Assay: Investigation of aqueous L-ascorbic acid solution
Format: cell-based
From the text: L-ascorbic acid (vitamin C) is essential for a living body and well fitted to body tissues. Addition of a small amount of L-ascorbic acid increases affinity to cellular tissues.

Structure (SMILES): O=C1O[C@H]([C@@H](O)CO)C(O)=C1O [L-ascorbic acid]
- antimicrobial activity of aqueous solution itself: almost no antimicrobial activity
